Read-outs that look alike come from different tables or passages of the source.

Experimental findings from patent publication US11028088B2, “Modulators of BTK proteolysis and methods of use” (Yale University, priority 2018, dated 2021) are described below.

The target in test [1] is T1, HER3 (Homo sapiens, UniProt P21860).
T1 construct: endogenous in cells; host or cells: OVCAR8
As to the kind of experiment: HER3/ERBB3 degradation (western blot, OVCAR8 cells). The class given is cell-based. Here is the method: FIG. 10 illustrates a Western blot of Compound 102-related degradation of ERBB3.
In various embodiments, treatment with PROTAC was performed in one of two ways: 1) For experiments involving >16 h exposure to compound, a 1000× stock was added to cells followed by gentle agitation; 2) For shorter treatments, a 2× stock was added to an equal volume of cells to ensure uniform drug exposure. For immortalized cell lines, 2×10^6 cells per treatment condition were collected and washed once with ice cold PBS (IX), followed by lysis in buffer containing 20 mM Tris [pH 8.0], 0.25% sodium deoxycholate, 1% Triton X-100, supplemented with protease (Roche) and phosphatase inhibitors (10 mM NaF, 2 mM Na3VO4, 10 mM β-glycerophosphate, 10 mM Na-pyrophosphate). Lysates were spun at 15,000×g for 10 min at 4° C. and supernatant was quantified for total protein content using the Pierce BCA Protein Assay (Thermo Fisher Scientific). 30 μg of protein was loaded onto 12% SDS-PAGE gels or 4-15% Mini-PROTEAN TGX precast gradient gels (Bio-Rad), transferred onto nitrocellulose membranes, and probed with the specified primary antibodies overnight with rocking at 4° C. in 1×TBS-T containing 5% non-fat milk.
(§1) Either anti-rabbit or anti-mouse HRP-conjugated secondary antibodies (Pierce) were incubated with the membranes for 1 h at room temperature at 1:10,000 dilutions in 5% non-fat milk in IX TBS-T. Imaging was performed using the ECL Prime chemiluminescent western blot detection reagents (Amersham) followed by visualization with the Bio-Rad ChemiDoc imaging instrument. All western blots were subsequently processed and quantified using the accompanying Bio-Rad Image Lab software. Primary antibodies used were: Anti-actin antibody (Cat. #MA 1-744) purchased from ThermoFisher Scientific; anti-BTK (Cat. #8547), anti-pBTK (Y223, Cat. #5082), anti-ITK (Cat. #2380), anti-GAPDH (Cat. #5179), anti-IKZF1 (Cat. #9034), and anti-IKZF3 (Cat. #15103) antibodies purchased from Cell Signaling Technology. All antibodies were used at 1:1,000 dilutions in 5% non-fat milk in 1×TBS-Tween (TBS-T) or Blotto blocker (Thermo Scientific) unless otherwise noted in supplier specifications.
A general note: In western blotting, separated proteins are transferred to a membrane and probed.

Test [2] concerns the target BTK (Homo sapiens, UniProt Q06187). The test can be described thus: BTK degradation in NAMALWA cells (immunoblot). The class given is cell-based. Further details: host or cells: NAMALWA. The conditions noted are these: NAMALWA cells; for DC50: concentration needed to degrade 50% of the total pool of BTK; for Max: maximal BTK degradation. Here is the method:
NAMALWA and Jurkat cell lines were purchased from ATCC and cultured according to supplier guidelines at 37° C. […] Wild-type and C481S BTK XLA cell lines were cultured as previously described (39). Written, informed consent was obtained prior to the collection of cells from CLL patients using the IWCLL2008 criteria. Isolation of mononuclear cells from peripheral blood was prepared using density gradient centrifugation. B-cells were then negatively selected ([…] Technologies). […] They were maintained at 37° C. in 5% CO2.
Lysates were spun at 15,000×g for 10 min at 4° C. and supernatant was quantified for total protein content using the Pierce BCA Protein Assay (Thermo Fisher Scientific).
as §1, with “Primary antibodies used were: Anti-actin antibody (Cat. #MA 1-744) purchased from ThermoFisher Scientific; anti-BTK (Cat. #8547), anti-pBTK (Y223, Cat. #5082), anti-ITK (Cat. #2380), anti-GAPDH (Cat. #5179), anti-IKZF1 (Cat. #9034), and anti-IKZF3 (Cat. #15103) antibodies purchased from Cell Signaling Technology.” left out

Chain of BTK (Q06187 whole entry): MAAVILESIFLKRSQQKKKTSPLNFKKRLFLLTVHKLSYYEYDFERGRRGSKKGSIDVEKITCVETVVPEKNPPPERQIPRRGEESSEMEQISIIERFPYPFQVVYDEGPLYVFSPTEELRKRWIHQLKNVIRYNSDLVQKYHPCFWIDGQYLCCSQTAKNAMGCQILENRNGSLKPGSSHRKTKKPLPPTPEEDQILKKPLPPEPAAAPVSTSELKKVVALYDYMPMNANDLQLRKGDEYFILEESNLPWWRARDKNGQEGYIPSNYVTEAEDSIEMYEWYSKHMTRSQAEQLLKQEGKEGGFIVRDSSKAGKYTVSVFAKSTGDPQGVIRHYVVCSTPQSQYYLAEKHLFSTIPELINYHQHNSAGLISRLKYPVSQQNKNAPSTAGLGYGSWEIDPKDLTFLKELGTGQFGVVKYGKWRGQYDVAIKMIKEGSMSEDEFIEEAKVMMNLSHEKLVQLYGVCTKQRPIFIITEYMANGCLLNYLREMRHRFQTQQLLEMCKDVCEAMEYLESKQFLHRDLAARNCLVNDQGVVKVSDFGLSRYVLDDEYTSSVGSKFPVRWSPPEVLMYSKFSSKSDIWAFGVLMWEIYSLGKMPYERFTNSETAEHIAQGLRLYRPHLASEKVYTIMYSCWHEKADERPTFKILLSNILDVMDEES
T1 sequence (P21860 20-1342): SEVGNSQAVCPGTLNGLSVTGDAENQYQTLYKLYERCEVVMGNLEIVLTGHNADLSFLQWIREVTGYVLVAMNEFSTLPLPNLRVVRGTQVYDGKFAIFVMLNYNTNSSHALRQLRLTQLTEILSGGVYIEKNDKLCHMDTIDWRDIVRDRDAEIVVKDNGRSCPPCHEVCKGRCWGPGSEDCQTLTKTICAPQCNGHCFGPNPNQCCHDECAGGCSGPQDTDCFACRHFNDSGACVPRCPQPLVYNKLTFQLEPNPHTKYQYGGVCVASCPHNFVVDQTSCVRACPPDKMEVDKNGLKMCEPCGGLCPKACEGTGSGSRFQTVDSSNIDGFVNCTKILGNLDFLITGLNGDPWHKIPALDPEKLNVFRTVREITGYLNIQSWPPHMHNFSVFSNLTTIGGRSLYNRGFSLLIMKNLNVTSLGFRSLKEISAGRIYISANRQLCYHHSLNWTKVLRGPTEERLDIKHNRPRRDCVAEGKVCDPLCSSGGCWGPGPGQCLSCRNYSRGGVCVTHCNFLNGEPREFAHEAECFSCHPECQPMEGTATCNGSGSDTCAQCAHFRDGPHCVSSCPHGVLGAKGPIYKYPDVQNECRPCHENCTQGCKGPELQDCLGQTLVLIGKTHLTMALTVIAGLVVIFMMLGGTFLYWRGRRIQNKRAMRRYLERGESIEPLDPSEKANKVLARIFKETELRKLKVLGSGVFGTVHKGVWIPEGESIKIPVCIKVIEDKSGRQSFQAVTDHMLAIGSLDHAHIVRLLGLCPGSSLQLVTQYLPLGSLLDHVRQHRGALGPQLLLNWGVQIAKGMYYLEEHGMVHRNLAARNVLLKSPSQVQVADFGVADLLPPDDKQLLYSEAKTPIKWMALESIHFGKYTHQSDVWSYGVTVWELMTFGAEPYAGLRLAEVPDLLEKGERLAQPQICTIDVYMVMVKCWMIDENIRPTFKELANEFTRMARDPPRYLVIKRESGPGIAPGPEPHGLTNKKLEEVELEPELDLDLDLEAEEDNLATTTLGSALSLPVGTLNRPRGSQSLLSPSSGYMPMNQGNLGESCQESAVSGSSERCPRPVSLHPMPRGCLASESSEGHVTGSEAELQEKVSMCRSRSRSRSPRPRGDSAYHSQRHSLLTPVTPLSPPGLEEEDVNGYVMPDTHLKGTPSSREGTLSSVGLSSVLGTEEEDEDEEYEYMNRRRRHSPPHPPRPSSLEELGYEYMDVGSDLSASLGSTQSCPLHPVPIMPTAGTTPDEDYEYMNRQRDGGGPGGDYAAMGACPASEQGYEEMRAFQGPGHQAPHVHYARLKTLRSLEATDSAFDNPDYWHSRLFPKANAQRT

With `Nc1ncnc2c1c(-c1ccc(Oc3ccccc3)cc1)nn2C1CCN(CCCCOCCCCOCC(=O)Nc2ccc3c(c2)C(=O)N(C2CCC(=O)NC2=O)C3=O)CC1` (centres unmarked) [Compound 105, 2-[4-[4-[4-[4-amino-3-(4-phenoxyphenyl)pyrazolo[3,4-d]pyrimidin-1-yl]-1-piperidyl]butoxy]butoxy]-N-[2-(2,6-dioxo-3-piperidyl)-1,3-dioxo-isoindolin-5-yl]acetamide], the “HER3 Degradation” value in test [1] is recorded as “No”. Moreover, the DC50 (in general, the concentration at which degradation of the target reaches its halfway point) in test [2] (read-out: DC50) was found to be 11.6 nM. Moreover, the Max in test [2] (at 250 nM) is recorded as greater than 99%. Moreover, the “hook-effect (increase in BTK levels at high PROTAC concentration)” value in test [2] (up to 2.5 μM, 24 h) is “(No”.
Regarding `Nc1ncnc2c1c(-c1ccc(Oc3ccccc3)cc1)nn2C1CCN(CCCCOCCCCOCC(=O)Nc2cccc3c2C(=O)N(C2CCC(=O)NC2=O)C3=O)CC1` (centres unmarked) [Compound 106, 2-[4-[4-[4-[4-amino-3-(4-phenoxyphenyl)pyrazolo[3,4-d]pyrimidin-1-yl]-1-piperidyl]butoxy]butoxy]-N-[2-(2,6-dioxo-3-piperidyl)-1,3-dioxo-isoindolin-4-yl]acetamide], in test [1], the “HER3 Degradation” value was “No”. Further, the “degradation of BTK at 1.0 μM” value in test [2] (1.0 μM) is “nearly complete degradation”. The DC50 in test [2] (read-out: DC50) turned out to be 90.1 nM. Moreover, the Max in test [2] (at 1.0 μM) is recorded as 93%.
Consider `Nc1ncnc2c1c(-c1ccc(Oc3ccccc3)cc1)nn2C1CCN(CCCCCCOCCCCCCOCC(=O)Nc2cccc3c2C(=O)N(C2CCC(=O)NC2=O)C3=O)CC1` (centres unmarked) [Compound 107, 2-(6-(6-(4-(4-amino-3-(4-phenoxyphenyl)-1H-pyrazolo[3,4-d]pyrimidin-1-yl)piperidin-1-yl)hexyloxy)hexyloxy)-N-(2-(2,6-dioxopiperidin-3-yl)-1,3-dioxoisoindolin-4-yl)acetamide], for which the “HER3 Degradation” value in test [1] was “No”. In addition, the DC50 in test [2] (read-out: DC50) amounted to 98.5 nM. For the same molecule, the Max in test [2] (at 1.0 μM) is reported as 98%.
`Cc1ncsc1-c1ccc(CNC(=O)[C@@H]2C[C@@H](O)CN2C(=O)[C@@H](NC(=O)COCCOCCOCCOCCN2CCC(n3nc(-c4ccc(Oc5ccccc5)cc4)c4c(N)ncnc43)CC2)C(C)(C)C)cc1` [Compound 109, (2S,4R)-1-((S)-17-(4-(4-amino-3-(4-phenoxyphenyl)-1H-pyrazolo[3,4-d]pyrimidin-1-yl)piperidin-1-yl)-2-tert-butyl-4-oxo-6,9,12,15-tetraoxa-3-azaheptadecane)-4-hydroxy-N-(4-(4-methylthiazol-5-yl)benzyl)pyrrolidine-2-carboxamide]: the “HER3 Degradation” value in test [1] is listed as “No”. Also, the 50% degradation concentration (DC50) in test [2] (read-out: DC50) stood at 278 nM. The same molecule gave a Max in test [2] (at 2.5 μM) of 73%.
For `Cc1ncsc1-c1ccc(CNC(=O)[C@@H]2C[C@@H](O)CN2C(=O)[C@@H](NC(=O)COCCOCCOCCCCCCN2CCC(n3nc(-c4ccc(Oc5ccccc5)cc4)c4c(N)ncnc43)CC2)C(C)(C)C)cc1` [Compound 110, (2S,4R)-1-((S)-19-(4-(4-amino-3-(4-phenoxyphenyl)-1H-pyrazolo[3,4-d]pyrimidin-1-yl)piperidin-1-yl)-2,2-dimethyl-5-oxo-7,10,13-trioxa-4-azanonadecanecarbonyl)-4-hydroxy-N-(4-(4-methylthiazol-5-yl)benzyl)pyrrolidine-2-carboxamide], the “HER3 Degradation” value in test [1] is on record as “No”. Besides, the DC50 result in test [2] is recorded as “No Degradation”.
Consider `Cc1ncsc1-c1ccc(CNC(=O)[C@@H]2C[C@@H](O)CN2C(=O)[C@@H](NC(=O)COCCCCCOCCCCCCN2CCC(n3nc(-c4ccc(Oc5ccccc5)cc4)c4c(N)ncnc43)CC2)C(C)(C)C)cc1` [Compound 111, (2S,4R)-1-((S)-2-(2-(5-(6-(4-(4-amino-3-(4-phenoxyphenyl)-1H-pyrazolo[3,4-d]pyrimidin-1-yl)piperidin-1-yl)hexyloxy)pentyloxy)acetamido)-3,3-dimethylbutanoyl)-4-hydroxy-N-(4-(4-methylthiazol-5-yl)benzyl)pyrrolidine-2-carboxamide], for which the “HER3 Degradation” value in test [1] is “No”. Further, the DC50 in test [2] (read-out: DC50) stood at 144 nM. In addition, the Max in test [2] (at 1.0 μM) stood at 45%.
On to `Cc1ncsc1-c1ccc(CNC(=O)[C@@H]2C[C@@H](O)CN2C(=O)[C@@H](NC(=O)CCCCCOCCOCCCCCCN2CCC(n3nc(-c4ccc(Oc5ccccc5)cc4)c4c(N)ncnc43)CC2)C(C)(C)C)cc1` [Compound 112, (2S,4R)-1-((S)-2-(6-(2-(6-(4-(4-amino-3-(4-phenoxyphenyl)-1H-pyrazolo[3,4-d]pyrimidin-1-yl)piperidin-1-yl)hexyloxy)ethoxy)hexanamido)-3,3-dimethylbutanoyl)-4-hydroxy-N-(4-(4-methylthiazol-5-yl)benzyl)pyrrolidine-2-carboxamide], for which the “HER3 Degradation” value in test [1] is recorded as “No”. Further, the DC50 result in test [2] is on record as “No Degradation”.
For `Cc1ncsc1-c1ccc(CNC(=O)[C@@H]2C[C@@H](O)CN2C(=O)[C@@H](NC(=O)COCCOCCOCCOCCCCN2CCC(n3nc(-c4ccc(Oc5ccccc5)cc4)c4c(N)ncnc43)CC2)C(C)(C)C)cc1` [Compound 113, (2S,4R)-1-((S)-19-(4-(4-amino-3-(4-phenoxyphenyl)-1H-pyrazolo[3,4-d]pyrimidin-1-yl)piperidin-1-yl)-2-tert-butyl-4-oxo-6,9,12,15-tetraoxa-3-azanonadecane)-4-hydroxy-N-(4-(4-methylthiazol-5-yl)benzyl)pyrrolidine-2-carboxamide], the “HER3 Degradation” value in test [1] was “No”. In addition, the DC50 in test [2] (read-out: DC50) worked out at 124 nM. In test [2] (at 1.0 μM), this molecule registered a Max of 60%.
In the case of `Cc1ncsc1-c1ccc(CNC(=O)[C@@H]2C[C@@H](O)CN2C(=O)[C@@H](NC(=O)COCCOCCOCCOCCN2CCN(C3CCC(n4nc(-c5ccc(Oc6ccccc6)cc5)c5c(N)ncnc54)CC3)CC2)C(C)(C)C)cc1` (stereo partly drawn) [Compound 114, (2S,4R)-1-((S)-17-(4-(4-(4-amino-3-(4-phenoxyphenyl)-1H-pyrazolo[3,4-d]pyrimidin-1-yl)cyclohexyl)piperazin-1-yl)-2-tert-butyl-4-oxo-6,9,12,15-tetraoxa-3-azaheptadecane)-4-hydroxy-N-(4-(4-methylthiazol-5-yl)benzyl)pyrrolidine-2-carboxamide], the “HER3 Degradation” value in test [1] is listed as “No”. For the same molecule, the DC50 in test [2] (read-out: DC50) stood at 248 nM. Also, the Max in test [2] (at 1.0 μM) was 30%.
With `Cc1ncsc1-c1ccc(CNC(=O)[C@@H]2C[C@@H](O)CN2C(=O)[C@@H](NC(=O)COCCOCCOCCOCCCCCCN2CCC(n3nc(-c4ccc(Oc5ccccc5)cc4)c4c(N)ncnc43)CC2)C(C)(C)C)cc1` [Compound 115, (2S,4R)-1-((S)-22-(4-(4-amino-3-(4-phenoxyphenyl)-1H-pyrazolo[3,4-d]pyrimidin-1-yl)piperidin-1-yl)-2,2-dimethyl-5-oxo-7,10,13,16-tetraoxa-4-azadocosanecarbonyl)-4-hydroxy-N-(4-(4-methylthiazol-5-yl)benzyl)pyrrolidine-2-carboxamide], in test [1], the “HER3 Degradation” value is reported as “No”. The DC50 in test [2] (read-out: DC50) stood at 231 nM. The molecule further yielded a Max in test [2] (at 1.0 μM) of 32%.
As for `Cc1ncsc1-c1ccc(CNC(=O)[C@@H]2C[C@@H](O)CN2C(=O)[C@@H](NC(=O)CCCCCOCCOCCOCCCCCCN2CCC(n3nc(-c4ccc(Oc5ccccc5)cc4)c4c(N)ncnc43)CC2)C(C)(C)C)cc1` [Compound 116, (2S,4R)-1-((S)-23-(4-(4-amino-3-(4-phenoxyphenyl)-1H-pyrazolo[3,4-d]pyrimidin-1-yl)piperidin-1-yl)-2,2-dimethyl-5-oxo-11,14,17-trioxa-4-azatricosanecarbonyl)-4-hydroxy-N-(4-(4-methylthiazol-5-yl)benzyl)pyrrolidine-2-carboxamide], the “HER3 Degradation” value in test [1] is recorded as “No”. Besides, the DC50 entry in test [2] is “No Degradation”.
